The values that follow come from US20100261723A1, “TRISUBSTITUTED PYRIMIDINE DERIVATIVES FOR THE TREATMENT OF PROLIFERATIVE DISEASES” (ASTRAZENECA AB, priority 2007, published 2010).

pIC50: −log10 of the molar value.

This assay addresses T1, mTOR kinase (Homo sapiens, UniProt P42345).
T1 construct: FLAG; made in house
Description: In vitro mTOR kinase assay, Test (a)(i) (AlphaScreen). Format: biochemical. The settings on record: recombinant FLAG-tagged mTOR (1362-2549), ATP 20 μM; read-out: Test (a)(i) IC50. The procedure: (a)(i) In Vitro mTOR Kinase Assay
A C-terminal truncation of mTOR encompassing amino acid residues 1362 to 2549 of mTOR (EMBL Accession No. L34075) was stably expressed as a FLAG-tagged fusion in HEK293 cells as described by Vilella-Bach et al., […], 1999, 274, 4266-4272. The HEK293 FLAG-tagged mTOR (1362-2549) stable cell line was routinely maintained at 37° C. with 5% CO2 up to a confluency of 70-90% in Dulbecco's modified Eagle's growth medium (DMEM; Invitrogen Limited, Paisley, UK Catalogue No. 41966-029) containing 10% heat-inactivated foetal calf serum (FCS; Sigma, Poole, Dorset, UK, Catalogue No. F0392), 1% L-glutamine (Gibco, Catalogue No. 25030-024) and 2 mg/ml Geneticin (G418 sulfate; Invitrogen Limited, UK Catalogue No. 10131-027). Following expression in the mammalian HEK293 cell line, expressed protein was purified using the FLAG epitope tag using standard purification techniques.
A 30 μl mixture of recombinant purified mTOR enzyme, 1 μM biotinylated peptide substrate (Biotin-Ahx-[…]NH2; Bachem UK Ltd), ATP (20 μM) and a buffer solution [comprising Tris-HCl pH7.4 buffer (50 mM), EGTA (0.1 mM), bovine serum albumin (0.5 mg/mL), DTT (1.25 mM) and manganese chloride (10 mM)] was agitated at room temperature for 90 minutes.
These assay solutions were incubated for 2 hours at room temperature.
Phosphorylated biotinylated peptide is formed in situ as a result of mTOR mediated phosphorylation. The phosphorylated biotinylated peptide that is associated with AlphaScreen Streptavidin donor beads forms a complex with the p70 S6 Kinase (T389) 1A5 Monoclonal Antibody that is associated with Alphascreen Protein A acceptor beads. […] Accordingly, the presence of mTOR kinase activity results in an assay signal. In the presence of an mTOR kinase inhibitor, signal strength is reduced.
Background: In Alpha technology, singlet oxygen from a donor bead excites a nearby acceptor bead.

T1 sequence (P42345 1362-2549): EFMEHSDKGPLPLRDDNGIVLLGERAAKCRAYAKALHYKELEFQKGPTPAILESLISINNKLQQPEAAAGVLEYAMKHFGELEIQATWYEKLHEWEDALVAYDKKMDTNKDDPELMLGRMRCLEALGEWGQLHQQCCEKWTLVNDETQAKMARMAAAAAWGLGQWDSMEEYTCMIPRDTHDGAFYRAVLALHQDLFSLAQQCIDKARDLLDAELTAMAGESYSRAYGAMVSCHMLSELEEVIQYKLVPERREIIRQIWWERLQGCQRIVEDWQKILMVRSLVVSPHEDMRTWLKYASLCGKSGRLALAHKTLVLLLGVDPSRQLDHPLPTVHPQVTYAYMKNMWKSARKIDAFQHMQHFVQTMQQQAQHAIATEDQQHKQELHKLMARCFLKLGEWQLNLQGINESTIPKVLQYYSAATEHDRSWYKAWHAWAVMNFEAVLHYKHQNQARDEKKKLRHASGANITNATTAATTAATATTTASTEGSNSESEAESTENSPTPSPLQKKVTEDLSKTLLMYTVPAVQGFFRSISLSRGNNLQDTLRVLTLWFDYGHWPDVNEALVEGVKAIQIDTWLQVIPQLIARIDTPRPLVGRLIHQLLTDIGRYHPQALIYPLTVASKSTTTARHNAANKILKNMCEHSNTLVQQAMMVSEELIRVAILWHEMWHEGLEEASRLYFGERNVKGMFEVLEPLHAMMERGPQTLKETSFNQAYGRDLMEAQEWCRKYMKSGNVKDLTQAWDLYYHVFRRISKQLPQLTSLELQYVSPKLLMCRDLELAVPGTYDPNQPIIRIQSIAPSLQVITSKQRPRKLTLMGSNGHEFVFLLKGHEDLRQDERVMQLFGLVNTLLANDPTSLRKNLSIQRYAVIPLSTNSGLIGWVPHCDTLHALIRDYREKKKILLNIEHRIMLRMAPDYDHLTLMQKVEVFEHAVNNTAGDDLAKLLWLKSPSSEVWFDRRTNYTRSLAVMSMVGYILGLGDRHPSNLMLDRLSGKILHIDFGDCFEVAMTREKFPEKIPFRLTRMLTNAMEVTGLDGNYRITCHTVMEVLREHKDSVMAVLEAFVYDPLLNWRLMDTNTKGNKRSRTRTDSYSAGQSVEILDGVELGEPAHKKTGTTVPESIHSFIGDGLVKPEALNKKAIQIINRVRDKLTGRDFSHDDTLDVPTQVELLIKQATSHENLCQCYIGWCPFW

What is called pIC50 is the IC50 on a negative log10 scale, so that one unit is a factor of ten. Consider `CS(=O)(=O)Cc1cc(N2CCOCC2)nc(-c2ccc(NC(=O)c3ccccc3)cc2)n1` [Example 4a, N-[4-[4-(methylsulfonylmethyl)-6-morpholin-4-yl-pyrimidin-2-yl]phenyl]benzamide], for which the pIC50 was 4.82. For `CS(=O)(=O)Cc1cc(N2CCOCC2)nc(-c2ccc(NC(=O)Cc3ncccn3)cc2)n1` [Example 5ak, N-[4-[4-(methylsulfonylmethyl)-6-morpholin-4-yl-pyrimidin-2-yl]phenyl]-2-pyrimidin-2-yl-acetamide] the value was 5.11; for `CS(=O)(=O)Cc1cc(N2CCOCC2)nc(-c2ccc(NC(=O)c3cncs3)cc2)n1` [Example 5ao, N-[4-[4-(methylsulfonylmethyl)-6-morpholin-4-yl-pyrimidin-2-yl]phenyl]-1,3-thiazole-5-carboxamide], 6.26; for `Cc1ccc(C(=O)Nc2ccc(-c3nc(CS(C)(=O)=O)cc(N4CCOCC4)n3)cc2)cn1` [Example 5w, 6-methyl-N-[4-[4-(methylsulfonylmethyl)-6-morpholin-4-yl-pyrimidin-2-yl]phenyl]pyridine-3-carboxamide], 5.09. As for `CC(=O)Nc1ccc(-c2nc(CS(C)(=O)=O)cc(N3CCOCC3)n2)cc1` [Example 4, N-[4-[4-(Methylsulfonylmethyl)-6-morpholin-4-yl-pyrimidin-2-yl]phenyl]acetamide], the pIC50 was 6.03. On to `CS(=O)(=O)Cc1cc(N2CCOCC2)nc(-c2ccc(NC(=O)Cc3ccco3)cc2)n1` [Example 5ai, 2-(2-furyl)-N-[4-[4-(methylsulfonylmethyl)-6-morpholin-4-yl-pyrimidin-2-yl]phenyl]acetamide], for which the pIC50 is 5.79. Consider `CS(=O)(=O)CC(=O)Nc1ccc(-c2nc(CS(C)(=O)=O)cc(N3CCOCC3)n2)cc1` [Example 5e, 2-methylsulfonyl-N-[4-[4-(methylsulfonylmethyl)-6-morpholin-4-yl-pyrimidin-2-yl]phenyl]acetamide], for which the pIC50 was 5.75. Consider `CC(C)C(=O)Nc1ccc(-c2nc(CS(C)(=O)=O)cc(N3CCOCC3)n2)cc1` [Example 5g, 2-methyl-N-[4-[4-(methylsulfonylmethyl)-6-morpholin-4-yl-pyrimidin-2-yl]phenyl]propanamide], for which the pIC50 was 5.44. Consider `CS(=O)(=O)Cc1cc(N2CCOCC2)nc(-c2ccc(NC(=O)c3cccnc3)cc2)n1` [Example 5r, N-[4-[4-(methylsulfonylmethyl)-6-morpholin-4-yl-pyrimidin-2-yl]phenyl]pyridine-3-carboxamide], for which the pIC50 is 5.56. Take `CC(=O)Nc1ccc(-c2nc(CS(C)(=O)=O)cc(N3CCOCC3)n2)cc1CO` [Example 1, N-[2-(Hydroxymethyl)-4-[4-(methylsulfonylmethyl)-6-morpholin-4-yl-pyrimidin-2-yl]phenyl]acetamide]: the pIC50 was 6.79. `Cc1ccc(C(=O)Nc2ccc(-c3nc(CS(C)(=O)=O)cc(N4CCOCC4)n3)cc2)n1C` [Example 5z, 1,5-dimethyl-N-[4-[4-(methylsulfonylmethyl)-6-morpholin-4-yl-pyrimidin-2-yl]phenyl]pyrrole-2-carboxamide]: the pIC50 was 5.04. Consider `CS(=O)(=O)Cc1cc(N2CCOCC2)nc(-c2ccc(NC(=O)C3(C(N)=O)CC3)cc2)n1` [Example 5ab, N′-[4-[4-(methylsulfonylmethyl)-6-morpholin-4-yl-pyrimidin-2-yl]phenyl]cyclopropane-1,1-dicarboxamide], for which the pIC50 was 5.18. Under `CS(=O)(=O)Cc1cc(N2CCOCC2)nc(-c2ccc(NC(=O)CC#N)cc2)n1` [Example 5o, 2-cyano-N-[4-[4-(methylsulfonylmethyl)-6-morpholin-4-yl-pyrimidin-2-yl]phenyl]acetamide] stands 5.73; under `CC(C)CC(=O)Nc1ccc(-c2nc(CS(C)(=O)=O)cc(N3CCOCC3)n2)cc1` [Example 5h, 3-methyl-N-[4-[4-(methylsulfonylmethyl)-6-morpholin-4-yl-pyrimidin-2-yl]phenyl]butanamide], 5.59. Under `CS(=O)(=O)Cc1cc(N2CCOCC2)nc(-c2ccc(NC(=O)CCC3CC3)cc2)n1` [Example 5aa, 3-cyclopropyl-N-[4-[4-(methylsulfonylmethyl)-6-morpholin-4-yl-pyrimidin-2-yl]phenyl]propanamide] stands 5.30; under `CS(=O)(=O)Cc1cc(N2CCOCC2)nc(-c2ccc(NC(=O)CN3CCOCC3)cc2)n1` [Example 5am, N-[4-[4-(methylsulfonylmethyl)-6-morpholin-4-yl-pyrimidin-2-yl]phenyl]-2-morpholin-4-yl-acetamide], 5.04; under `CS(=O)(=O)Cc1cc(N2CCOCC2)nc(-c2ccc(NC(=O)CCC(F)(F)F)cc2)n1` [Example 5m, 4,4,4-trifluoro-N-[4-[4-(methylsulfonylmethyl)-6-morpholin-4-yl-pyrimidin-2-yl]phenyl]butanamide], 5.95. On to `Cc1ccn(CC(=O)Nc2ccc(-c3nc(CS(C)(=O)=O)cc(N4CCOCC4)n3)cc2)n1` [Example 5an, 2-(3-methylpyrazol-1-yl)-N-[4-[4-(methylsulfonylmethyl)-6-morpholin-4-yl-pyrimidin-2-yl]phenyl]acetamide], for which the pIC50 is 4.53. Consider `CS(=O)(=O)Cc1cc(N2CCOCC2)nc(-c2ccc(NC(=O)c3ccc(C#N)nc3)cc2)n1` [Example 5x, 6-cyano-N-[4-[4-(methylsulfonylmethyl)-6-morpholin-4-yl-pyrimidin-2-yl]phenyl]pyridine-3-carboxamide], for which the pIC50 is 5.21. For `CS(=O)(=O)Cc1cc(N2CCOCC2)nc(-c2ccc(NC(=O)C3CCC(=O)N3)cc2)n1` (stereo not drawn) [Example 5t, N-[4-[4-(methylsulfonylmethyl)-6-morpholin-4-yl-pyrimidin-2-yl]phenyl]-5-oxo-pyrrolidine-2-carboxamide] the value was 5.54; for `CS(=O)(=O)Cc1cc(N2CCOCC2)nc(-c2ccc(NC(=O)C3CCC3)cc2)n1` [Example 5, N-[4-[4-(Methylsulfonylmethyl)-6-morpholin-4-yl-pyrimidin-2-yl]phenyl]cyclobutanecarboxamide], 5.93.

On to `CCC(=O)Nc1ccc(-c2nc(CS(C)(=O)=O)cc(N3CCOCC3)n2)cc1` [Example 5a, N-[4-[4-(methylsulfonylmethyl)-6-morpholin-4-yl-pyrimidin-2-yl]phenyl]propanamide], for which the pIC50 was 6.19. Consider `CS(=O)(=O)Cc1cc(N2CCOCC2)nc(-c2ccc(NC(=O)c3c[nH]cn3)cc2)n1` [Example 5f, N-[4-[4-(methylsulfonylmethyl)-6-morpholin-4-yl-pyrimidin-2-yl]phenyl]-1H-imidazole-4-carboxamide], for which the pIC50 was 6.02. In the case of `CO[C@H](C)C(=O)Nc1ccc(-c2nc(CS(C)(=O)=O)cc(N3CCOCC3)n2)cc1` [Example 5ap, (2R)-2-methoxy-N-[4-[4-(methylsulfonylmethyl)-6-morpholin-4-yl-pyrimidin-2-yl]phenyl]propanamide], the pIC50 was 4.49. On to `CS(=O)(=O)Cc1cc(N2CCOCC2)nc(-c2ccc(NC(=O)C(F)F)cc2)n1` [Example 5ar, 2,2-difluoro-N-[4-[4-(methylsulfonylmethyl)-6-morpholin-4-yl-pyrimidin-2-yl]phenyl]acetamide], for which the pIC50 was 5.97. As to `COCC(=O)Nc1ccc(-c2nc(CS(C)(=O)=O)cc(N3CCOCC3)n2)cc1` [Example 5j, 2-methoxy-N-[4-[4-(methylsulfonylmethyl)-6-morpholin-4-yl-pyrimidin-2-yl]phenyl]acetamide], the pIC50 is 5.08. For `CC(C)(C(N)=O)C(=O)Nc1ccc(-c2nc(CS(C)(=O)=O)cc(N3CCOCC3)n2)cc1` [Example 5al, 2,2-dimethyl-N′-[4-[4-(methylsulfonylmethyl)-6-morpholin-4-yl-pyrimidin-2-yl]phenyl]propanediamide], the pIC50 was 5.40. As to `COCCC(=O)Nc1ccc(-c2nc(CS(C)(=O)=O)cc(N3CCOCC3)n2)cc1` [Example 5k, 3-methoxy-N-[4-[4-(methylsulfonylmethyl)-6-morpholin-4-yl-pyrimidin-2-yl]phenyl]propanamide], the pIC50 is 5.68. Regarding `Cc1cc(C(=O)Nc2ccc(-c3nc(CS(C)(=O)=O)cc(N4CCOCC4)n3)cc2)n(C)n1` [Example 5af, 2,5-dimethyl-N-[4-[4-(methylsulfonylmethyl)-6-morpholin-4-yl-pyrimidin-2-yl]phenyl]pyrazole-3-carboxamide], the pIC50 was 5.00. For `CS(=O)(=O)Cc1cc(N2CCOCC2)nc(-c2ccc(NC(=O)CCc3c[nH]cn3)cc2)n1` [Example 5ah, 3-(1H-imidazol-4-yl)-N-[4[4-(methylsulfonylmethyl)-6-morpholin-4-yl-pyrimidin-2-yl]phenyl]propanamide], the pIC50 was 5.56.
